Results taken from PubChem BioAssay (NCI).
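Growth conditions: 96-well plates. Treatment: test compound, 48 hours, 5 concentrations. Analysis: linear interpolation between bracketing concentrations; unreached endpoints set to highest concentration. TGI denotes the concentration required for complete inhibition of growth.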

What was measured:
Assay in all cases: growth of human tumour cells (NCI), 48 h
[1] = system: ACHN renal
[2] = system: SF-295 CNS
[3] = system: NCI-H226 lung
[4] = system: M14 melanoma
[5] = system: SK-OV-3 ovarian
[6] = system: SK-MEL-2 melanoma
[7] = system: NCI-H460 lung
[8] = system: CCRF-CEM leukemia
[9] = system: HCC-2998 colon
[10] = system: TK-10 renal
[11] = system: HT29 colon
[12] = system: OVCAR-5 ovarian
[13] = system: OVCAR-3 ovarian
[14] = system: SN12C renal
[15] = system: SNB-75 CNS
[16] = system: A549 NSCLC
[17] = system: SR leukemia
[18] = system: PC-3 prostate
[19] = system: MDA-MB-435

| SMILES | TGI [1] [µM] | TGI [2] [µM] | TGI [3] [µM] | TGI [4] [µM] | TGI [5] [µM] | TGI [6] [µM] | TGI [7] [µM] | TGI [8] [µM] | TGI [9] [µM] | TGI [10] [µM] | TGI [11] [µM] | TGI [12] [µM] | TGI [13] [µM] | TGI [14] [µM] | TGI [15] [µM] | TGI [16] [µM] | TGI [17] [µM] | TGI [18] [µM] | TGI [19] [µM] |
| --- | --- | --- | --- | --- | --- | --- | --- | --- | --- | --- | --- | --- | --- | --- | --- | --- | --- | --- | --- |
| CCCOC(=O)C1CCC(=O)N1C(=O)C(C)Cl (stereo unspecified) | > 100 | > 100 | > 100 | > 100 | > 100 | > 100 | > 100 | > 100 | > 100 | > 100 | > 100 | > 100 | > 100 | > 100 | > 100 | > 100 | – | – | – |
| CCOC(=O)[C@]12C(=C(c3ccccc3)O[C@H]3C=CCC[C@H]31)C(=O)C(=O)N2c1ccccc1 | > 100 | > 100 | – | > 100 | > 100 | > 100 | > 100 | – | > 100 | > 100 | > 100 | > 100 | > 100 | > 100 | – | > 100 | 46.8 | > 100 | – |
| C#CCNC(=O)NCCCC(NC(C)=O)C(=O)NCc1ccccc1 (stereo unspecified) | > 100 | > 100 | > 100 | > 100 | > 100 | – | > 100 | > 100 | > 100 | > 100 | > 100 | > 100 | > 100 | > 100 | > 100 | > 100 | > 100 | – | – |
| Nc1ccc2nc(NCc3ccc(F)cc3)cnc2c1 | > 100 | > 100 | > 100 | > 100 | – | > 100 | > 100 | > 100 | > 100 | > 100 | > 100 | > 100 | > 100 | > 100 | > 100 | > 100 | > 100 | – | – |
| CC(=O)O[C@]12CCCCC1C1(O)C(O)CCCCC12 (stereo partly specified) | > 100 | > 100 | > 100 | > 100 | > 100 | > 100 | > 100 | > 100 | – | > 100 | > 100 | – | – | > 100 | > 100 | > 100 | > 100 | – | – |
| CC(C)(C)OC(=O)CC(NC(=O)OC(C)(C)C)C(=O)N[C@@H]1CCCC[C@H]1C(=O)OCc1ccccc1 (stereo partly specified) | > 100 | 70.2 | 60.3 | > 100 | 65 | 61.1 | > 100 | 83.2 | 64.7 | 79.6 | 59.1 | > 100 | > 100 | 48.7 | > 100 | 93.4 | > 100 | > 100 | 92.2 |
| COc1ccccc1/C=C(\C#N)C(=O)c1ccccc1 | > 100 | > 100 | > 100 | > 100 | > 100 | > 100 | > 100 | > 100 | > 100 | – | > 100 | > 100 | > 100 | > 100 | – | > 100 | > 100 | – | – |
| CCOCN1COCN=C1NC#N | > 100 | > 100 | > 100 | > 100 | > 100 | > 100 | > 100 | – | > 100 | > 100 | > 100 | > 100 | > 100 | > 100 | > 100 | > 100 | 76.5 | – | – |
| NC(=O)C#CC#CC#CCO | 2.61 | 11.6 | 27.5 | 3.63 | 25.5 | 4.9 | 19.3 | – | 3.1 | 3.01 | 4.04 | 33.1 | 3.49 | 3.76 | – | 16.5 | 4.54 | – | – |
| CC1OC(n2ccc(=O)[nH]c2=O)C=C(OC(=O)c2ccccc2)C1=O (stereo unspecified) | > 100 | > 100 | – | > 100 | > 100 | – | > 100 | > 100 | – | > 100 | > 100 | – | 53.4 | > 100 | 63.1 | > 100 | – | – | – |
| C=CCOC(=O)Cn1cc(C)c(=O)[nH]c1=O | > 100 | > 100 | > 100 | > 100 | > 100 | > 100 | > 100 | > 100 | > 100 | > 100 | > 100 | – | – | > 100 | > 100 | > 100 | > 100 | > 100 | > 100 |
| n1onc2c1NC1Nc3nonc3NC1N2 (stereo unspecified) | > 100 | > 100 | > 100 | > 100 | > 100 | – | > 100 | > 100 | > 100 | > 100 | > 100 | > 100 | > 100 | > 100 | > 100 | > 100 | – | > 100 | > 100 |
| Cc1ccccc1C1OC(=O)c2ccccc21 (stereo unspecified) | > 100 | – | > 100 | > 100 | > 100 | > 100 | > 100 | > 100 | > 100 | > 100 | > 100 | > 100 | > 100 | > 100 | > 100 | > 100 | > 100 | – | – |
| NC(=O)c1cccc(C2OC(COP(=O)(O)O)C(O)C2O)c1 (stereo unspecified) | > 50 | > 50 | > 50 | > 50 | > 50 | > 50 | > 50 | > 50 | > 50 | > 50 | > 50 | > 50 | > 50 | > 50 | > 50 | > 50 | – | – | – |
| CCOc1ccc(NC(=O)C(=O)NO)cc1 | > 100 | > 100 | > 100 | > 100 | > 100 | > 100 | > 100 | > 100 | > 100 | > 100 | > 100 | > 100 | > 100 | > 100 | > 100 | > 100 | > 100 | – | – |
| O=C1[C@@H]2C(c3ccc(Cl)cc3Cl)=NO[C@@H]2C(=O)N1c1ccc(Cc2ccc(N3C(=O)[C@H]4C(c5ccc(Cl)cc5Cl)=NO[C@H]4C3=O)cc2)cc1 | – | > 100 | > 100 | > 100 | > 100 | > 100 | – | > 100 | > 100 | > 100 | > 100 | > 100 | > 100 | > 100 | > 100 | > 100 | – | – | – |
| Cn1c2c(c3ccccc31)CCN(CCN1CCN(c3ccccc3)CC1)C2=O | > 100 | > 100 | – | > 100 | > 100 | – | > 100 | > 100 | – | > 100 | > 100 | – | – | > 100 | – | > 100 | – | – | – |
| N#CCCN(c1ccc(/C=C2\N=C(Cc3ccccc3)OC2=O)cc1)S(=O)(=O)c1ccccc1 | > 100 | > 100 | > 100 | > 100 | > 100 | > 100 | > 100 | > 100 | > 100 | > 100 | > 100 | > 100 | > 100 | > 100 | > 100 | > 100 | – | – | – |
| N#CC(C(=O)/C(=N/NC(=O)c1ccccc1O)C(C#N)c1ccccc1)c1ccccc1 (stereo unspecified) | > 100 | > 100 | > 100 | > 100 | > 100 | > 100 | > 100 | – | > 100 | > 100 | > 100 | – | > 100 | > 100 | > 100 | > 100 | – | – | – |
| COc1ccc(/C(Cl)=C(/c2ccc(O)cc2)c2ccc(OCCN(C)C)cc2)cc1 | 27.8 | 16.3 | 34.4 | 4.22 | 26.3 | 22.4 | 26 | – | 30.5 | 34.1 | 6.49 | 26.1 | 28.8 | 26.2 | 23.3 | 26.7 | 10.6 | – | – |
| Cc1ccc(O)c(C(c2ccc([N+](=O)[O-])cc2)c2cc(C)ccc2O)c1 | 19.2 | 31.3 | 39.9 | 26.7 | 30 | 23.9 | – | 56.9 | 9.66 | 30.4 | 30 | 28.9 | 19.9 | 27.3 | 15.5 | 25.6 | 22.8 | 14.3 | 28.5 |
| CN(C)CCC(O)(c1ccccc1)C(O)(CCN(C)C)c1ccccc1 (stereo unspecified) | > 100 | > 100 | – | 32.8 | > 100 | > 100 | > 100 | > 100 | > 100 | > 100 | > 100 | > 100 | > 100 | > 100 | > 100 | > 100 | – | – | – |
| CCOc1ccc(Nc2nc3c(s2)C(=O)c2ccccc2C3=O)cc1 | 28.9 | 23.5 | – | 27 | 34.3 | 30.6 | 38.9 | > 100 | 33.5 | 36.3 | – | 40 | 12.9 | 13.5 | 24 | 44.3 | – | 20 | 3.25 |
| Cc1ccc(N=NC2S/C(=C(\C#N)c3nc4ccccc4[nH]3)N(c3ccccc3)C2=O)cc1 (stereo unspecified) | > 100 | > 100 | > 100 | > 100 | > 100 | > 100 | > 100 | > 100 | – | > 100 | > 100 | > 100 | > 100 | > 100 | 82.5 | > 100 | – | – | – |
| COP(=O)(Cc1ccc(/C=C/C#N)o1)OC | – | – | > 100 | > 100 | > 100 | – | > 100 | > 100 | – | > 100 | > 100 | – | > 100 | – | > 100 | > 100 | > 100 | – | > 100 |
| COc1ccc(NC(=O)CC(=O)N2N=C(N(CCC#N)c3ccccc3Cl)CC2c2ccccc2)cc1 (stereo unspecified) | > 100 | > 100 | > 100 | > 100 | – | > 100 | > 100 | > 100 | > 100 | > 100 | > 100 | > 100 | > 100 | > 100 | > 100 | > 100 | > 100 | – | – |
| COc1ccc(N(CN2C(=O)CCC2C(=O)O)C(C)=O)cc1 (stereo unspecified) | > 100 | > 100 | > 100 | > 100 | > 100 | > 100 | > 100 | > 100 | > 100 | > 100 | > 100 | > 100 | > 100 | > 100 | > 100 | > 100 | – | > 100 | > 100 |
| O=C(CC(=O)Nc1cccc(Cl)c1)NNCC(=O)Nc1nnc(-c2ccccc2)s1 | > 100 | > 100 | 75.7 | > 100 | 77.3 | > 100 | > 100 | – | > 100 | > 100 | > 100 | > 100 | > 100 | > 100 | 33.8 | > 100 | > 100 | – | – |
| Cc1nc2ccc(Cl)cc2c2c1CCS2 | > 100 | > 100 | > 100 | > 100 | > 100 | > 100 | > 100 | > 100 | > 100 | > 100 | > 100 | > 100 | > 100 | > 100 | – | > 100 | 86.6 | > 100 | > 100 |
